Source: ChEMBL document CHEMBL4145494, “Synthesis and biological evaluation of aurora kinases inhibitors based on N-trisubstituted pyrimidine scaffold” (Eur J Med Chem, 2018)
Blank lines part the entries; values can stand above or below the compound they belong to. Calls of active or inactive are those of the source. No cut-off for these calls is given here.

Experiments:
[1] = tested on: U-937; assay: Antiproliferative activity against human U937 cells after 48 hrs by CCK8 assay; type: functional, cell-based; conditions: U-937, 48 h
[2] = tested on: U-937; assay: Induction of apoptosis in human U937 cells assessed as late apoptotic cells at 0.6 uM after 48 hrs by Annexin-V/propidium iodide staining based flow cytometry (reference value: 1.93%); type: functional
[3] = tested on: Mus musculus; assay: Toxicity in nude mouse xenografted with human U937 cells assessed as body weight change at 50 to 100 mg/kg, ip administered once daily for 9 days; type: organism-based; conditions: in vivo, 216 h
[4] = tested on: HeLa; assay: Antiproliferative activity against human HeLa cells after 48 hrs by CCK8 assay; type: functional, cell-based
[5] = tested on: U-937; assay: Induction of apoptosis in human U937 cells assessed as live cells at 0.3 uM after 48 hrs by Annexin-V/propidium iodide staining based flow cytometry (reference value: 94.6%); type: functional
[6] = tested on: U-937; assay: Cell cycle arrest in human U937 cells assessed as decrease in 2N DNA content at 0.1 to 1 uM after 24 hrs by propidium iodide staining based flow cytometry; type: functional
[7] = tested on: U-937; assay: Antitumor activity against human U937 cells xenografted in nude mouse assessed as tumor weight at 50 mg/kg, ip administered once daily for 9 days (reference value: 1.64 +/- 0.22 g); type: functional
[8] = tested on: HCT-116; assay: Antiproliferative activity against human HCT116 cells after 48 hrs by CCK8 assay; type: functional, cell-based; conditions: HCT-116, 48 h
[9] = tested on: U-937; assay: Induction of apoptosis in human U937 cells assessed as live cells at 1.2 uM after 48 hrs by Annexin-V/propidium iodide staining based flow cytometry (reference value: 94.6%); type: functional
[10] = tested on: U-937; assay: Induction of apoptosis in human U937 cells assessed as early apoptotic cells at 0.3 uM after 48 hrs by Annexin-V/propidium iodide staining based flow cytometry (reference value: 2.38%); type: functional
[11] = target: Aurora kinase B (Homo sapiens, UniProt Q96GD4); assay: Inhibition of AURKB (unknown origin) using FAM-labeled peptide substrate preincubated for 10 mins followed by substrate addition measured after 60 mins by caliper assay
Aurora kinase B, sequence (Q96GD4 whole entry): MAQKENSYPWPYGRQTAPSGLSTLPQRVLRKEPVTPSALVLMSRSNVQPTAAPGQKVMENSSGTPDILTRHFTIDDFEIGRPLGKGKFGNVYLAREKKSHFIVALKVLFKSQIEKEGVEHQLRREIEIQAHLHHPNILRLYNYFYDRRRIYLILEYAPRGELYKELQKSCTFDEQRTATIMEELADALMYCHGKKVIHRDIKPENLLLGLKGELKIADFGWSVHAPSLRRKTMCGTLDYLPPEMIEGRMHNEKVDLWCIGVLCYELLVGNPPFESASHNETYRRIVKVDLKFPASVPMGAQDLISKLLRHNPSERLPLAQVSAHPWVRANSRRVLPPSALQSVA

[12] = tested on: U-937; assay: Induction of apoptosis in human U937 cells assessed as live cells at 0.6 uM after 48 hrs by Annexin-V/propidium iodide staining based flow cytometry (reference value: 94.6%); type: functional
[13] = tested on: U-937; assay: Induction of apoptosis in human U937 cells assessed as necrotic cells at 0.3 uM after 48 hrs by Annexin-V/propidium iodide staining based flow cytometry (reference value: 1.13%); type: functional
[14] = tested on: MDA-MB-231; assay: Induction of aberrant spindle formation with tripolar and tetrapolar occurrence in human MDA-MB-231 cells at 1 uM after 48 hrs by DAPI staining based immunofluorescence assay; type: functional, cell-based
[15] = tested on: MDA-MB-231; assay: Induction of chromosome alignment defects in human MDA-MB-231 cells at 1 uM after 48 hrs by DAPI staining based immunofluorescence assay; type: functional, cell-based
[16] = tested on: U-937; assay: Antitumor activity against human U937 cells xenografted in nude mouse assessed as tumor size at 50 mg/kg, ip administered once daily for 9 days (reference value: 1069.16 +/- 327.22 mm3); type: functional
[17] = tested on: U-937; assay: Induction of apoptosis in human U937 cells assessed as necrotic cells at 0.6 uM after 48 hrs by Annexin-V/propidium iodide staining based flow cytometry (reference value: 1.13%); type: functional
[18] = tested on: U-937; assay: Induction of apoptosis in human U937 cells assessed as late apoptotic cells at 1.2 uM after 48 hrs by Annexin-V/propidium iodide staining based flow cytometry (reference value: 1.93%); type: functional
[19] = tested on: K562; assay: Antiproliferative activity against human K562 cells after 48 hrs by CCK8 assay; type: functional, cell-based; conditions: K562, 48 h
[20] = tested on: U-937; assay: Induction of apoptosis in human U937 cells assessed as early apoptotic cells at 1.2 uM after 48 hrs by Annexin-V/propidium iodide staining based flow cytometry (reference value: 2.38%); type: functional
[21] = tested on: NB-4; assay: Antiproliferative activity against human NB4 cells after 48 hrs by CCK8 assay; type: functional, cell-based; conditions: NB-4, 48 h
[22] = tested on: HL-60; assay: Antiproliferative activity against human HL60 cells after 48 hrs by CCK8 assay; type: functional, cell-based; conditions: HL-60, 48 h
[23] = tested on: U-937; assay: Induction of apoptosis in human U937 cells assessed as early apoptotic cells at 0.6 uM after 48 hrs by Annexin-V/propidium iodide staining based flow cytometry (reference value: 2.38%); type: functional
[24] = tested on: NB-4; assay: Cell cycle arrest in human NB4 cells assessed as decrease in 2N DNA content at 0.1 to 1 uM after 24 hrs by propidium iodide staining based flow cytometry; type: functional
[25] = tested on: U-937; assay: Cell cycle arrest in human U937 cells assessed as accumulation at G2/M phase at 0.1 to 1 uM after 24 hrs by propidium iodide staining based flow cytometry relative to control; type: functional
[26] = tested on: MDA-MB-231; assay: Antiproliferative activity against human MDA-MB-231 cells after 48 hrs by CCK8 assay; type: functional, cell-based; conditions: MDA-MB-231, 48 h
[27] = tested on: A-431; assay: Antiproliferative activity against human A431 cells after 48 hrs by CCK8 assay; type: functional, cell-based; conditions: A-431, 48 h
[28] = tested on: K562; assay: Cell cycle arrest in human K562 cells assessed as decrease in 2N DNA content at 0.1 to 1 uM after 24 hrs by propidium iodide staining based flow cytometry; type: functional
[29] = tested on: U-937; assay: Induction of apoptosis in human U937 cells assessed as necrotic cells at 1.2 uM after 48 hrs by Annexin-V/propidium iodide staining based flow cytometry (reference value: 1.13%); type: functional
[30] = tested on: K562; assay: Cell cycle arrest in human K562 cells assessed as accumulation at G2/M phase at 0.1 to 1 uM after 24 hrs by propidium iodide staining based flow cytometry relative to control; type: functional
[31] = tested on: U-937; assay: Antitumor activity against human U937 cells xenografted in nude mouse assessed as tumor size at 100 mg/kg, ip administered once daily for 9 days (reference value: 1069.16 +/- 327.22 mm3); type: functional
[32] = tested on: U-937; assay: Antitumor activity against human U937 cells xenografted in nude mouse assessed as tumor weight at 100 mg/kg, ip administered once daily for 9 days (reference value: 1.64 +/- 0.22 g); type: functional
[33] = tested on: MDA-MB-231; assay: Inhibition of alpha-tubulin in human MDA-MB-231 cells assessed as abolishment of regular location of protein at 0.5 uM after 48 hrs by DAPI staining based immunofluorescence assay; type: cell-based
[34] = Stability of the compound up to 6 months at 40 +/- 2 degC and 75 +/- 5% relative humidity by HPLC analysis; type: physicochemical
[35] = tested on: U-937; assay: Induction of apoptosis in human U937 cells assessed as late apoptotic cells at 0.3 uM after 48 hrs by Annexin-V/propidium iodide staining based flow cytometry (reference value: 1.93%); type: functional
[36] = tested on: MCF7; assay: Antiproliferative activity against human MCF7 cells after 48 hrs by CCK8 assay; type: functional, cell-based; conditions: MCF7, 48 h
[37] = tested on: NB-4; assay: Cell cycle arrest in human NB4 cells assessed as accumulation at G2/M phase at 0.1 to 1 uM after 24 hrs by propidium iodide staining based flow cytometry relative to control; type: functional
[38] = target: T1, Aurora kinase A (Homo sapiens, UniProt O14965); assay: Inhibition of AURKA (unknown origin) using FAM-labeled peptide substrate preincubated for 10 mins followed by substrate addition measured after 60 mins by caliper assay
T1 sequence (O14965 whole entry): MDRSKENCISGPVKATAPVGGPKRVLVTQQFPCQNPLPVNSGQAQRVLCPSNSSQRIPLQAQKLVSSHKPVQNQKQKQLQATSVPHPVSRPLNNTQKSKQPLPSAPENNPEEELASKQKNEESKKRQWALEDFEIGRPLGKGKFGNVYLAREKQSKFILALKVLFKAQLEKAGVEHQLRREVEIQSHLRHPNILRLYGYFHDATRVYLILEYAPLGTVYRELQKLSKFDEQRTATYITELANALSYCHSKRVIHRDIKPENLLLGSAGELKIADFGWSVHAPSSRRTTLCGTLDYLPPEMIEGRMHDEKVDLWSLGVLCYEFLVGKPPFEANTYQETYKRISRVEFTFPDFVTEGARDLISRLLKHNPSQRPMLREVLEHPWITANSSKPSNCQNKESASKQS

IC50 [1]: 0.0122 µM | IC50 [4]: 0.277 µM | IC50 [8]: 0.18 µM | IC50 [11]: 0.0257 µM | IC50 [19]: 0.0952 µM | IC50 [22]: 0.034 µM | IC50 [26]: 0.0955 µM | IC50 [27]: 0.0809 µM | Stability [34]: Stable | IC50 [36]: 0.213 µM | IC50 [38]: 0.0071 µM
Compound: Cc1cc(Nc2cc(N3CCN(C)CC3)nc(Nc3ccc(F)c(Cl)c3)n2)n[nH]1
Activity [2]: 6.95% | Activity [3]: Non-Toxic | Activity [5]: 88.5% | Activity [6]: Active | Activity [7]: 0.93 g | Activity [9]: 86.3% | Activity [10]: 1.76% | Activity [12]: 67.8% | Activity [13]: 3.01% | Activity [14]: Active | Activity [15]: Active | Activity [16]: 753.6 mm3 | Activity [17]: 3.12% | Activity [18]: 7.15% | Activity [20]: 2.22% | IC50 [21]: 0.5 µM | Activity [23]: 2.11% | Activity [24]: Active | Activity [25]: >90% | Activity [28]: Active | Activity [29]: 4.34% | Activity [30]: >90% | Activity [31]: 528.88 mm3 | Activity [32]: 0.54 g | inhibition [33]: Active | Activity [35]: 6.76% | Activity [37]: >90%

IC50 [1]: 0.024 µM | IC50 [4]: 0.464 µM | IC50 [11]: 0.0346 µM | IC50 [19]: 0.213 µM | IC50 [26]: 0.101 µM | IC50 [36]: 0.577 µM | IC50 [38]: 0.0063 µM
Compound: Cc1cc(Nc2cc(N3CCOCC3)nc(Nc3ccc(F)c(Cl)c3)n2)n[nH]1

The remaining lines, values behind:

Compound: Cc1cc(Nc2cc(N3CCN(C)CC3)nc(Nc3ccc4c(c3)OCO4)n2)n[nH]1
IC50 [1]: 0.0584 µM | IC50 [4]: 0.457 µM | IC50 [8]: 0.719 µM | IC50 [11]: 0.0917 µM | IC50 [19]: 0.233 µM | IC50 [26]: 0.206 µM | IC50 [27]: 0.419 µM | IC50 [36]: 0.911 µM | IC50 [38]: 0.02 µM

Compound: COc1ccc(Nc2nc(Nc3cc(C)[nH]n3)cc(N3CCN(C)CC3)n2)cc1OC
IC50 [1]: 0.15 µM | IC50 [4]: 0.678 µM | IC50 [8]: 0.777 µM | IC50 [11]: 0.452 µM | IC50 [19]: 0.462 µM | IC50 [26]: 0.459 µM | IC50 [27]: 0.778 µM | IC50 [36]: 6.54 µM | IC50 [38]: 0.038 µM

Compound: COC(=O)c1ccc(Nc2nc(Nc3cc(C)[nH]n3)cc(N3CCN(C)CC3)n2)cc1OC
IC50 [1]: 0.545 µM | IC50 [4]: 0.872 µM | IC50 [8]: 1.14 µM | IC50 [11]: 0.442 µM | IC50 [19]: 0.762 µM | IC50 [26]: 0.872 µM | IC50 [27]: 1.22 µM | IC50 [36]: 10.3 µM | IC50 [38]: 0.067 µM

Compound: COc1cc(Nc2ncc3c(n2)-c2ccc(Cl)cc2C(c2c(F)cccc2OC)=NC3)ccc1C(=O)O
Activity [14]: Active | Activity [15]: Active | inhibition [33]: Active
